The source of these data is paper PMC6658998, “Pharmacological characterization of the seven human NOX isoforms and their inhibitors” (Redox Biology, 2019).

The target of experiment [1] is T1, human NOX1 (Homo sapiens, UniProt Q9Y5S8).
T1 construct: expressed in transfected cells; host or cells: CHO
T1 sequence (Q9Y5S8 1-564): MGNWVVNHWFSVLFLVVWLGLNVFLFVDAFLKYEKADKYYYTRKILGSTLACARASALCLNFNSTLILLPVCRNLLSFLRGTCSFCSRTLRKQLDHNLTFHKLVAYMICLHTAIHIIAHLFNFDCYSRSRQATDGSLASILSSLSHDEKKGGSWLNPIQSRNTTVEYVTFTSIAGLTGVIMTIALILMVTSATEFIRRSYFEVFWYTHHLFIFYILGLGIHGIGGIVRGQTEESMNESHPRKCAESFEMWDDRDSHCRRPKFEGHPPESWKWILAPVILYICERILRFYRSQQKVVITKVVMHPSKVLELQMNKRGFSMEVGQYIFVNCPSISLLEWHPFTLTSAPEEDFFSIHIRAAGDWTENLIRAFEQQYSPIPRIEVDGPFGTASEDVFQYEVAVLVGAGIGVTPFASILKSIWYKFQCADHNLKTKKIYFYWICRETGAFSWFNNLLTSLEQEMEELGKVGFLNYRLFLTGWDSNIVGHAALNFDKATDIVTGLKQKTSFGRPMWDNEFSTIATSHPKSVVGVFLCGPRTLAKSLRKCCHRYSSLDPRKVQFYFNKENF
T1 sequence (P13498 1-195 partner): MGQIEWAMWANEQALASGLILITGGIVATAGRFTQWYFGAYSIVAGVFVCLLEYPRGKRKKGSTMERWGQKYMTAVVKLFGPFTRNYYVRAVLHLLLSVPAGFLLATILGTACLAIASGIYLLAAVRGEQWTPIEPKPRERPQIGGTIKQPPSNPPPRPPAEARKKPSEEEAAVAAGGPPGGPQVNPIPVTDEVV
The experiment can be described thus: Amplex Red/HRP H2O2 detection in NOX1-expressing CHO cells. In kind it is cell-based. The conditions noted are these: PMA 0.1 μM, read-out: IC50 NOX1 (CHO) AR.

The target of experiment [2] is T2, NOX5 (Homo sapiens, UniProt Q96PH1).
T2 construct: expressed in transfected cells
T2 sequence (Q96PH1 19-737 isoform Q96PH1-3 limits assumed): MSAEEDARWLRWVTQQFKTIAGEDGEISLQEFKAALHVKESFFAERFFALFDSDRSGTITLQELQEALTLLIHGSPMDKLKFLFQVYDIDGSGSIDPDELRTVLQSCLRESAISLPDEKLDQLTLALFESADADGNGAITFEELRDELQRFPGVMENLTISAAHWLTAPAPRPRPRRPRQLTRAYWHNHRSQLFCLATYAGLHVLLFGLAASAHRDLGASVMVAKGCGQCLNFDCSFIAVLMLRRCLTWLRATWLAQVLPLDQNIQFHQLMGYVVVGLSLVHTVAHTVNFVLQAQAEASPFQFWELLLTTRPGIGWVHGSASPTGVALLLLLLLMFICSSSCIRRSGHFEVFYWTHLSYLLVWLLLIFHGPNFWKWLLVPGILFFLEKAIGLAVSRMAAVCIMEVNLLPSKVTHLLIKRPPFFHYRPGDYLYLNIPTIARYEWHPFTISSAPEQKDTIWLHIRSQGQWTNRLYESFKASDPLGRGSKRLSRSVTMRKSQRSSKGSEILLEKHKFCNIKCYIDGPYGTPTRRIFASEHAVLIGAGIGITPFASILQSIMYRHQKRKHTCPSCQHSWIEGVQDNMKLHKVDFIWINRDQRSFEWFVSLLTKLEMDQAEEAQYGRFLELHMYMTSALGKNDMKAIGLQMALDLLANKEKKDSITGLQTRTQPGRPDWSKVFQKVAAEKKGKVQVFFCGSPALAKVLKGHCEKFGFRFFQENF
The experiment can be described thus: NOX5 activity in purified membranes of HEK293 cells expressing NOX5 (WST-1, CBA). It is filed as biochemical. Particulars: for Inhibitory activity in NOX5 membrane assay: WST-1 / CBA, concentration not given. The method, then: PLB-985 (40 dishes 150 cm^2) were grown in suspension and differentiated by addition of 1.25% DMSO for 72 h. HEK293 cells expressing NOX5 (40 dishes 150 cm^2) were amplified until confluence and detached using trypsin-EDTA for 5 min followed by addition of 2 vol of pre-warmed complete growth media to inactivate trypsin. Collected cells were centrifuged at 4000 ×g for 10 min. Cells were washed with PBS and centrifuged at 1500 ×g for 10 min. The supernatant was discarded and the pellet was placed at −80 °C for at least 30 min. […] Samples were sonicated two times for 25 s (level 7, Branson Sonifier 250). Cell debris were removed by centrifugation at 800 ×g for 10 min at 4 °C. The supernatant was laid on a sucrose gradient consisting of a bottom layer of 1 mL 40% sucrose and an upper layer of 1 mL 17% sucrose. Ultracentrifugation was performed at 150,000 ×g in SW60 rotor for 30 min at 4 °C. Following separation, the upper cytosolic fraction was discarded and the cloudy membrane fraction was collected. Protein concentration was determined with Bradford reagent using BSA as a standard. Small aliquots were kept at −80 °C.
NOX2 containing membranes were used at 10 μg/mL of proteins in a reaction mixture containing 90 nM recombinant RacQ61L, 45 nM recombinant p67Np47 N chimeric protein (consisting of a fusion of the N-termini of human p67phox [residues 1–210] and p47phox [residues 1–286]), 90 μM SDS, 1 μM FAD-Na2 and 1 mM WST-1 or 800 μM CBA in PBS. The reaction mixture was dispensed in 96-well plates (transparent for WST-1 absorbance, black for CBA fluorescence) at 80 μL/well and the plate was incubated for 5 min at 37 °C. The reaction was initiated by addition of 20 μL/well NADPH at final concentration 100 μM. NOX5 containing membranes were used at 20 μg/mL of proteins in a reaction mixture containing 50 mM HEPES pH 7.4, 1 mM NTA, 1 mM EDTA, 1 mM BAPTA, 1 mM MgCl2, 5.5 μM phosphatidic acid, 1 μM FAD, 700 μM CaCl2 and 1 mM WST-1 or 800 μM CBA in Milli-Q H2O. The reaction mixture was dispensed in 96-well plates (transparent for absorbance, black for fluorescence) at 80 μL/well and 20 μL/well of NADPH at final concentration of 200 μM were added to initiate the reaction.
Reported NOX inhibitors were added in 96 well plates at a single concentration as indicated to which mix containing membrane fractions and all components of the NOX2 or NOX5 membrane assays were added except NADPH. After 2–3 min incubation, 200 μM NADPH was added to start the reaction.
In general terms: Tetrazolium dyes change colour on reduction, which living cells bring about.

Bounds are passed on as bounds.

One may read the IC50 as the concentration that inhibits the measured activity by half. For the molecule `COc1cc(C(C)=O)cc(-c2cc(C(C)=O)cc(OC)c2O)c1O` [Diapocynin, diapocynin], the IC50 in experiment [1] stood at 32.7 µM.

As for `Cc1c2c(=O)n(-c3ccccc3Cl)[nH]c2cc(=O)n1Cc1ccccn1` [GKT136901], the IC50 in experiment [1] was found to be 9.2 µM.

With `COc1cc(C(C)=O)ccc1O` [Apocynin, apocynin], the IC50 in experiment [1] was greater than 50 µM.

As for `O=c1c2ccccc2[se]n1-c1ccccc1` [Ebselen, ebselen], the “Inhibition of NOX5-dependent signal in membranes” value in experiment [2] (compound 50 μM) was “inhibited”. Moreover, in experiment [1], the IC50 is 2.9 µM.

For the molecule `c1ccc(Cn2nnc3c(Sc4nc5ccccc5o4)ncnc32)cc1` [VAS2870, 3-benzyl-7-(2-benzoxazolyl)thio-1,2,3-triazolo[4,5-d]pyrimidine], the “Inhibitory activity in NOX5 membrane assay” value in experiment [2] was “no inhibitory activity”; in experiment [2] (listed as VAS280), “some level of inhibition”.

For the molecule `c1ccc2c(c1)[I+]c1ccccc1-2` [DPI, diphenylene iodonium chloride], the “Inhibitory activity in NOX5 membrane assay” value in experiment [2] was “potently inhibited”.
